According to ChEMBL document CHEMBL3627630, “Fragment-based discovery of potent ERK2 pyrrolopyrazine inhibitors” (Bioorg Med Chem Lett, 2015):

The compounds below were run against T1, Mitogen-activated protein kinase 1 (Homo sapiens, UniProt P28482) (assay: Binding affinity to ERK2 (unknown origin) by surface plasmon resonance assay).
T1 sequence (P28482 whole entry): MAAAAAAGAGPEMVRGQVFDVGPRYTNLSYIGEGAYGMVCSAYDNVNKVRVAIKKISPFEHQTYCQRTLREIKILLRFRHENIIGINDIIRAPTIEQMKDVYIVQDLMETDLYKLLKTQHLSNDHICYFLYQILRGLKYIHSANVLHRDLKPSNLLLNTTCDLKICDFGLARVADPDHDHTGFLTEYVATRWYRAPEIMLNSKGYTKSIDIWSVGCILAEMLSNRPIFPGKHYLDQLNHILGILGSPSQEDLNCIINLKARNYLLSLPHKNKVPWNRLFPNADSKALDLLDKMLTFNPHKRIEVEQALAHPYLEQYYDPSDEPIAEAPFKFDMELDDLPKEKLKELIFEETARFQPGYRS

| SMILES | Kd |
| --- | --- |
| Brc1cnc2[nH]ccc2n1 | 319 µM |
| Brc1cnc2[nH]cc(I)c2n1 | 125 µM |
| c1ccc(CNc2ncnc3nc[nH]c23)cc1 [6-BENZYLAMINOPURINE] | 247 µM |
| Brc1c[nH]c2nccnc12 | 97 µM |
| c1cnc2[nH]ccc2n1 | 343 µM |

The compounds below were run against T1, Mitogen-activated protein kinase 1 (assay: Inhibition of ERK2 (unknown origin) using 5FAM-IPTSPITTTYFFFKKK as substrate after 1 hr by LC3K assay).

| SMILES | IC50 |
| --- | --- |
| Clc1ccc(-c2c[nH]c3ncc(-c4ccncc4)nc23)cn1 | 0.182 µM |
| c1cc(-c2cnc3[nH]cc(-c4cnn(CCN5CCOCC5)c4)c3n2)ccn1 | 0.416 µM |
| Cc1n[nH]cc1-c1cnc2[nH]ccc2n1 | 22.2 µM |
| Brc1cnc2[nH]ccc2n1 | > 200 µM |
| c1cc(-c2cnc3[nH]cc(-c4cn[nH]c4)c3n2)ccn1 | 0.354 µM |
| Fc1ccc(-c2cnc3[nH]ccc3n2)cc1 | 29.7 µM |
| Nc1ccc(-c2c[nH]c3ncc(-c4ccncc4)nc23)cn1 | 0.468 µM |
| c1cc(-c2cnc3[nH]ccc3n2)ccn1 | 11.7 µM |
| c1cc2nc(-c3ccc4cn[nH]c4c3)cnc2[nH]1 | 31.9 µM |
| c1ncc(-c2c[nH]c3ncc(-c4cn[nH]c4)nc23)cn1 | 1.05 µM |
| COc1ccc(-c2c[nH]c3ncc(-c4ccncc4)nc23)cn1 | 0.252 µM |
| Oc1cccc(-c2cnc3[nH]ccc3n2)c1 | > 200 µM |
| Cc1ccc(-c2c[nH]c3ncc(-c4ccncc4)nc23)cn1 | 0.634 µM |
| c1ccc(Cn2cc(-c3c[nH]c4ncc(-c5ccncc5)nc34)cn2)cc1 | 0.037 µM |
| COc1ccc(-c2cnc3[nH]ccc3n2)cc1 | 89.7 µM |
| Fc1cc(-c2cnc3[nH]ccc3n2)ccn1 | 21.6 µM |
| c1cc(-c2cnc3[nH]cc(-c4ccn[nH]4)c3n2)ccn1 | 0.94 µM |

| SMILES | IC50 |
| --- | --- |
| Cc1n[nH]c(C)c1-c1cnc2[nH]ccc2n1 | 14 µM |
| Oc1ccc(-c2cnc3[nH]ccc3n2)cc1 | 12.4 µM |
| c1cncc(-c2cnc3[nH]cc(-c4cccnc4)c3n2)c1 | 0.407 µM |
| NC(=O)c1cccc(-c2cnc3[nH]ccc3n2)c1 | > 200 µM |
| c1cc2nc(-c3cn[nH]c3)cnc2[nH]1 | 5.9 µM |
| c1ccc(CCn2cc(-c3c[nH]c4ncc(-c5ccncc5)nc34)cn2)cc1 | 2 µM |
| OCCCn1cc(-c2c[nH]c3ncc(-c4ccncc4)nc23)cn1 | 0.623 µM |
| NC(=O)c1ccc(-c2cnc3[nH]ccc3n2)cc1 | 44.1 µM |
| c1ccc(-c2cnc3[nH]ccc3n2)cc1 | 50.1 µM |
| c1cc(-c2cnc3[nH]cc(-c4cncnc4)c3n2)ccn1 | 2.2 µM |
| c1cncc(-c2c[nH]c3ncc(-c4cn[nH]c4)nc23)c1 | 0.28 µM |
| Cn1cc(-c2cnc3[nH]ccc3n2)cn1 | 22.5 µM |
| CCn1cc(-c2c[nH]c3ncc(-c4ccncc4)nc23)cn1 | 0.149 µM |
| CCCn1cc(-c2c[nH]c3ncc(-c4ccncc4)nc23)cn1 | 0.071 µM |
| CC(C)Cn1cc(-c2c[nH]c3ncc(-c4ccncc4)nc23)cn1 | 0.091 µM |
| c1cncc(-c2cnc3[nH]ccc3n2)c1 | 71.5 µM |

These compounds were tested against T1, Mitogen-activated protein kinase 1 (assay: Inhibition of human recombinant ERK2 expressed in Escherichia coli using Omnia peptide S/T17 as substrate measured every 50 seconds for 30 mins).

| SMILES | IC50 |
| --- | --- |
| Cn1cc(-c2c[nH]c3ncc(-c4ccncc4)nc23)cn1 | 0.072 µM |
